Reference: patent US6841548B2, “Pharmaceutical preparations containing estra-1,3,5(10)-triene derivatives” (Schering AG, priority 1994, dated 2005)

Columns and labels:
ovariectomated rats [1] = assay: Oral estrogen treatment: serum IGF1 (somatomedin C), RIA; format: in vivo, rat; set-up: unit not given here; details: Experiment A
Description: (§1) The laboratory animals, adult female rats (breeder: HSD/WIN:WU) were ovariectomated on day 14. Treatment started two weeks later by a single oral application per day of the respective test substance. The dosages given for esters refer to the steroid portion of the substances. The tests were made in three groups (A, B, C) at various points in time. This is why there is a deviation in control group values. The tests of series A, B, and C can therefore be compared among each other if the values for the respective control groups are taken into account.
(§2) The procedure of allocating animals to groups was randomized. The experiment was carried out as a block test. The animals were weighed at the beginning and at the end of the experiment.
(§3) The start of treatment was defined as day 1 (=d1), treatment was finished on day 7 (=d7); the animals were killed on day 8, various organs (uteri, adrenal glands, liver) were removed, weighed and deep-frozen (−196° C.) for further examination.
(§4) Blood was taken from the retrobulbar plexus under ether anaesthesia prior to treatment (d0), and on (d4) and (d8). IGF1, angiotensin I, cholesterol and HDL cholesterol were determined in the serum obtained.
IGF1: RIA by bioMérieux Co.;

[2] = oral, humans, Goldzieher study; cited from earlier work
ovariectomated rats [3] = assay: Hepatic parameters: HDL cholesterol levels in serum, enzymatic test; format: in vivo, rat; details: Experiment A
Description: as §1, §2, §3, §4
(§5) cholesterol/HDL: enzymatic tests, photometric determination, reagents by Dr Bruno Lange GmbH.

ovariectomated rats [4] = assay: Oral estrogenic effects: weights of adrenal glands in ovariectomated rats; format: in vivo, rat
Description: as §1, §2, §3

ovariectomated rats [5] = assay: Hepatic parameters: total cholesterol levels in serum, enzymatic test; format: in vivo, rat; details: Experiment A
Description: The laboratory animals, adult female rats (breeder: HSD/WIN:WU) were ovariectomated on day 14. Treatment started two weeks later by a single oral application per day of the respective test substance. The dosages given for esters refer to the steroid portion of the substances. The tests were made in three groups (A, B, C) at various points in time.
as §2, §3, §4, §5

ovariectomated rats [6] = assay: Oral estrogenic effects: uterus weights in ovariectomated rats; format: in vivo, rat
Description: as §1, §2, §3

ovariectomated rats [7] = assay: Hepatic parameters: serum angiotensin I, modified RIA for renin activity; format: in vivo, rat; set-up: Angiotensin I: unit not given here; details: for Angiotensin I: Experiment A
Description: as §1, §2, §3, §4
angiotensin: modified RIA for renin activity by Sorin Co.

[8] = day 4, 0.1 μg/animal/day p.o. d1-d7
[9] = day 4, 1 μg/animal/day p.o. d1-d7
[10] = day 4, 10 μg/animal/day p.o. d1-d7
[11] = day 4, 100 μg/animal/day p.o. d1-d7
[12] = day 8, 0.1 μg/animal/day p.o. d1-d7
[13] = day 8, 1 μg/animal/day p.o. d1-d7
[14] = day 8, 10 μg/animal/day p.o. d1-d7
[15] = day 8, 100 μg/animal/day p.o. d1-d7
[16] = Experiment A, 0.1 μg/animal/day p.o. d1-d7
[17] = Experiment A, 1 μg/animal/day p.o. d1-d7
[18] = Experiment A, 10 μg/animal/day p.o. d1-d7
[19] = Experiment A, 100 μg/animal/day p.o. d1-d7
[20] = Experiment B, 10 μg/animal/day p.o. d1-d7

HDL cholesterol levels (mean value ± standard deviation) (ovariectomated rats [3]; [8]): 49.6 ± 2.9 mg/dL
HDL cholesterol levels (mean value ± standard deviation) (ovariectomated rats [3]; [9]): 47.1 ± 8.5 mg/dL
HDL cholesterol levels (mean value ± standard deviation) (ovariectomated rats [3]; [10]): 19.5 ± 8.4 mg/dL
HDL cholesterol levels (mean value ± standard deviation) (ovariectomated rats [3]; [11]): 3.6 ± 1.3 mg/dL
HDL cholesterol levels (mean value ± standard deviation) (ovariectomated rats [3]; [12]): 52.2 ± 4.1 mg/dL
HDL cholesterol levels (mean value ± standard deviation) (ovariectomated rats [3]; [13]): 49.5 ± 6.9 mg/dL
HDL cholesterol levels (mean value ± standard deviation) (ovariectomated rats [3]; [14]): 26.5 ± 7.8 mg/dL
HDL cholesterol levels (mean value ± standard deviation) (ovariectomated rats [3]; [15]): 2.4 ± 0.9 mg/dL
Total cholesterol levels (mean value ± standard deviation) (ovariectomated rats [5]; [8]): 81.0 ± 3.3 mg/dL
Total cholesterol levels (mean value ± standard deviation) (ovariectomated rats [5]; [9]): 82.4 ± 15.8 mg/dL
Total cholesterol levels (mean value ± standard deviation) (ovariectomated rats [5]; [10]): 30.3 ± 9.6 mg/dL
Total cholesterol levels (mean value ± standard deviation) (ovariectomated rats [5]; [11]): 6.8 ± 3.2 mg/dL
Total cholesterol levels (mean value ± standard deviation) (ovariectomated rats [5]; [12]): 86.5 ± 9.6 mg/dL
Total cholesterol levels (mean value ± standard deviation) (ovariectomated rats [5]; [13]): 80.2 ± 14.4 mg/dL
Total cholesterol levels (mean value ± standard deviation) (ovariectomated rats [5]; [14]): 39.8 ± 10.2 mg/dL
Total cholesterol levels (mean value ± standard deviation) (ovariectomated rats [5]; [15]): 5.5 ± 3.3 mg/dL
Angiotensin I (ovariectomated rats [7]; [8]): 408.2 ± 31.2
Angiotensin I (ovariectomated rats [7]; [9]): 402.2 ± 30.3
Angiotensin I (ovariectomated rats [7]; [10]): 572.2 ± 35.0
Angiotensin I (ovariectomated rats [7]; [11]): 930.1 ± 146.2
Angiotensin I (ovariectomated rats [7]; [12]): 473.7 ± 19.7
Angiotensin I (ovariectomated rats [7]; [13]): 492.6 ± 29.1
Angiotensin I (ovariectomated rats [7]; [14]): 498.7 ± 26.1
Angiotensin I (ovariectomated rats [7]; [15]): 833.1 ± 137.2
Effect on angiotensin I (AI) values, in words (ovariectomated rats [7]; doses of 10 or 100 μg, detectable as early as day 4): sharp increases of AI
SMILES: C#C[C@]1(O)CC[C@H]2[C@@H]3CCc4cc(O)ccc4[C@H]3CC[C@@]21C [EE, ethinyl estradiol]
IGF1 (= somatomedin C) (ovariectomated rats [1]; 100 μg/animal/day p.o. d1-d7, d 0 (prior to treatment)): 704.6 ± 70.4
IGF1 (= somatomedin C) (ovariectomated rats [1]; 100 μg/animal/day p.o. d1-d7, d 4): 547.0 ± 88.7
IGF1 (= somatomedin C) (ovariectomated rats [1]; 100 μg/animal/day p.o. d1-d7, d 8): 393.6 ± 71.1
Highest AUC found, measured 0 to 24 hours after application [2]: 2.121 ng·h/mL
Lowest AUC, measured 0 to 24 hours after application [2]: 0.284 ng·h/mL
Weights of adrenal glands (mean value) (ovariectomated rats [4]; [16]): 53.7 mg
Weights of adrenal glands (mean value) (ovariectomated rats [4]; [17]): 58.9 mg
Weights of adrenal glands (mean value) (ovariectomated rats [4]; [18]): 59.0 mg
Weights of adrenal glands (mean value) (ovariectomated rats [4]; [19]): 80.8 mg
Weights of adrenal glands (mean value) (ovariectomated rats [4]; [20]): 56.6 mg
Uterus weights (mean value) (ovariectomated rats [6]; [16]): 152.2 mg
Uterus weights (mean value) (ovariectomated rats [6]; [17]): 195.8 mg
Uterus weights (mean value) (ovariectomated rats [6]; [18]): 282.4 mg
Uterus weights (mean value) (ovariectomated rats [6]; [19]): 441.2 mg
Uterus weights (mean value) (ovariectomated rats [6]; [20]): 352.59 mg
